From patent US20220026420A1, “MOLECULES AND METHODS FOR IMPROVED IMMUNODETECTION OF SMALL MOLECULES SUCH AS HISTAMINE” (PRESIDENT AND FELLOWS OF HARVARD COLLEGE, priority 2018, published 2022) come the findings set out here.

Experiment [1] has as its system anti-histamine antibody. The experiment in a line: Competitive histamine ELISA with PEG linkers on streptavidin plates, anti-IgG HRP detection. It counts as binding. As for the experimental part:
To identify an antibody that recognizes free histamine with improved (lower) binding affinities, we used the PEG-mono-histidine linker (Structure 1) as a target with antibodies that we previously screened with BSA-histamine, i.e., the antibodies listed in FIG. 3A. […] The monovalent histidine linker (25 μM) 86 was added for 1 hour, and then 5 μg ml^−1 anti-histamine antibody was incubated with different concentrations of soluble histamine for 1 hour at room temperature on a shaker 88. Finally, anti-IgG labelled HRP 810 was used to detect the bound antibodies.
The monovalent histidine linker (25 μM) 86 was added for 1 hour, and then 5 μg ml^−1 anti-histamine antibody was incubated with different concentrations of soluble histamine for 1 hour at room temperature on a shaker 88. Finally, anti-IgG labelled HRP 810 was used to detect the bound antibodies.
Histamine detection assay could be performed in two formats. The first format includes the immobilization of histamine conjugates to the solid support while the second format includes the immobilization of anti-histamine antibody on the solid support. For the immobilization of histamine conjugates the immobilization sample was prepared in 0.2 M carbonate-bicarbonate buffer (pH 9.4). Immobilisation samples herein refers to BSA-histamine, Streptavidin, and not limited to BSA-Histidine Samples. A high binding polystyrene 96 well ELISA plate was coated with 100 microliters of immobilization sample and the plates were incubated overnight at 4° C. Each well was then washed thrice with 0.01M phosphate-buffered saline with 0.05% Tween 20 (pH 7.4). To each well was then added 250 microliters 1% BSA solution prepared in 0.01M phosphate-buffered saline with 0.05% Tween 20 (pH 7.4) for 1 hour at ambient temperature. Each well was then washed three times with 0.01M phosphate-buffered saline with 0.05% Tween 20 (pH 7.4). For Streptavidin coated plates, to each well was then added 100 microliters of linkers prepared in 0.1% BSA in 0.01M phosphate-buffered saline with 0.05% Tween 20 (pH 7.4) as described in the other sections for 2 hours at ambient temperature on a shaker at 260 rpm. Each well was then washed three times with 0.01M phosphate-buffered saline with 0.05% Tween 20 (pH 7.4). The plate was then incubated with 50 microlitres of different concentration of free histamine and co-incubated with anti-histamine antibody for 1 hour at ambient temperature. […]. Anti-histamine antibody was prepared in 0.1% BSA in 0.01M phosphate-buffered saline with 0.05% Tween 20 (pH 7.4). After the incubation, each well was washed three times with 0.01M phosphate-buffered saline with 0.05% Tween 20 (pH 7.4). […]

The subject of experiment [2] is anti-histamine antibody conjugated to HRP. The experiment in a line: ELISA affinity of anti-histamine antibody-HRP to different linkers, without free histamine. The class given is binding. The conditions noted are these: 5 minutes, no free histamine, compared to PEG-mono-histidine linker, FIG. 26. The source says: FIG. 26 is a plot of a comparison of PEG-mono histamine with PEG-mono histidine using streptavidin coated ELISA plates. As illustrated, the data presents the affinity of anti-histamine antibody conjugated to HRP to different histamine conjugate linkers. As in the previous studies, streptavidin modified plates were used, here to study PEG-Mono-Histamine, PEG-mono-Histidine, PEG-phenyl-histidine and PEG-glutamate-histidine. The assay format was as per FIG. 19 without free histamine in the solution. The modified plates were then exposed to different concentrations of anti-histamine antibodies conjugated with HRP for 5 minutes.
In general terms: In an ELISA, binding on a coated surface is turned into a signal by an enzyme label.

The test system is the same in experiment [3]. Put plainly: Refined 5 min histamine ELISA with anti-histamine antibody conjugated to HRP. The class given is binding. As to conditions: for starting signal compared to PEG-mono histidine: 5 min assay; for Kd: Hill equation fit without the 0 nM histamine data point, read-out: dissociation constant (Kd). As for the experimental part: The assay was further refined to decrease the total assay time. This was achieved by conjugating the anti-histamine antibody to the detection enzyme HRP 192 as depicted by FIG. 19. The resultant assay could be completed within 5 min. For the present study, only PEG-mono histidine and PEG-dual histidine were used. FIG. 20A and FIG. 20B show the results obtained from the study.
The data points obtained were fitted using a Hill equation which further assisted to characterize the linkers under study.
Histamine detection assay could be performed in two formats. The first format includes the immobilization of histamine conjugates to the solid support while the second format includes the immobilization of anti-histamine antibody on the solid support. For the immobilization of histamine conjugates the immobilization sample was prepared in 0.2 M carbonate-bicarbonate buffer (pH 9.4). Immobilisation samples herein refers to BSA-histamine, Streptavidin, and not limited to BSA-Histidine Samples. A high binding polystyrene 96 well ELISA plate was coated with 100 microliters of immobilization sample and the plates were incubated overnight at 4° C. Each well was then washed thrice with 0.01M phosphate-buffered saline with 0.05% Tween 20 (pH 7.4). To each well was then added 250 microliters 1% BSA solution prepared in 0.01M phosphate-buffered saline with 0.05% Tween 20 (pH 7.4) for 1 hour at ambient temperature. Each well was then washed three times with 0.01M phosphate-buffered saline with 0.05% Tween 20 (pH 7.4). For Streptavidin coated plates, to each well was then added 100 microliters of linkers prepared in 0.1% BSA in 0.01M phosphate-buffered saline with 0.05% Tween 20 (pH 7.4) as described in the other sections for 2 hours at ambient temperature on a shaker at 260 rpm. Each well was then washed three times with 0.01M phosphate-buffered saline with 0.05% Tween 20 (pH 7.4). The plate was then incubated with 50 microlitres of different concentration of free histamine and co-incubated with anti-histamine antibody for 1 hour at ambient temperature. […]. Anti-histamine antibody was prepared in 0.1% BSA in 0.01M phosphate-buffered saline with 0.05% Tween 20 (pH 7.4). After the incubation, each well was washed three times with 0.01M phosphate-buffered saline with 0.05% Tween 20 (pH 7.4). The plates were then incubated with a secondary antibody labelled with HRP prepared in 0.1% BSA in 0.01M phosphate-buffered saline with 0.05% Tween 20 (pH 7.4) in for 1 hour at ambient temperature. After the incubation, each well was washed three times with 0.01M phosphate-buffered saline with 0.05% Tween 20 (pH 7.4). Each well was then incubated with TMB turbo (150 microlitres) for 30 minute (measurement at a wavelength of 650 nm) followed by addition of 150 microlitres of 0.16 M Sulphuric acid to stop the solution in some examples where measurements are taken at a wavelength of 450 nm. […] Independent incubation time is described in each section.

The target of experiment [4] is anti-histamine antibody. Put plainly: 5-minute electrochemical assay in spiked human plasma samples. It counts as binding. An excerpt:
The Immuno-assay developed on the ELISA plates using PEG-dual Histidine was translated to an electrochemical platform to develop a biosensor for free histamine detection in human plasma samples.

For experiment [5], the system named is anti-histamine antibody. Put plainly: Histamine ELISA in spiked human plasma samples, conventional plate versus BSA-glutaraldehyde surface chemistry. The class given is binding. As to conditions: FIG. 28. As for the experimental part: In order for the assay design to be used for clinical applications for the rapid quantification of allergy severity, using clinical samples (e.g. human plasma, serum) is one of the most critical aspects. An ELISA plate was prepared using conventional means as shown in FIG. 19 using PEG-dual-histidine. In an alternative approach, an ELISA plate was prepared using the BSA-glutaraldehyde surface chemistry as previously described in international Application No. PCT/US2018/044076, the content of which is herein incorporated by reference. In contrast to the previously described system, no nanoparticles were used. Therefore BSA can be denatured and combined with glutaraldehyde and used to coat ELISA wells. This is then activated using and (1-ethyl-3-(3-dimethylaminopropyl)carbodiimide hydrochloride)/[…] (EDC/NHS) to link to streptavidin which allows attachment of biotin-PEG-dual-histidine. It can be clearly seen full blocking of the ELISA plate when human plasma samples are used for histamine detection. […] As per to date, no method exists to detect histamine in less than 10 minutes.

The subject of experiment [6] is anti-histamine antibody. The experiment in a line: Electrochemical biosensor for free histamine detection. The class given is binding. As to conditions: gold electrode, FIG. 12B. As for the experimental part:
The Immuno-assay developed on the ELISA plates was translated to an electrochemical platform to provide a biosensor for free histamine detection. The lowest concentration tested with the sensor was 2.7 nM which generated a statistically significant difference from the background. […] FIG. 12B is a semi-log plot showing the calibration curves for the electrochemical sensor using the structure depicted by FIG. 12A. Detection occurs as free […] competes and displaces Biotin-PEG6-Histidine conjugate from the anti-histamine.

Experiment [7] relates to Monoclonal Anti-Dinitrophenyl antibody conjugated with HRP. Put plainly: Competitive DNP ELISA with DNP linkers on streptavidin plates. It counts as binding, mouse. The conditions noted are these: FIG. 25. As for the experimental part:
Monoclonal Anti-Dinitrophenyl antibody produced in mouse (D8406) and 2,4-Dinitrophenol (D198501 was purchased from Sigma. The anti-DNP antibody was directly conjugated with HRP using a commercial kit e.g., LIGHTENING-LINK™ Antibody Labeling Kits available from Novus Biolgicals. Once again ELISA plate coated with streptavidin was used as described in FIG. 19. After blocking, the plates were incubated with the respective linker. Different concentrations of DNP with anti-DNP antibody was co-incubated for 45 minutes at room temperature in the dark. After incubation, the wells were washed 3 times with 200 μL PBST and incubated with 150 μL TMB for 10 minutes. Finally, 150 μL of stop solution was added and absorbance measurement was observed. FIG. 25 is a plot showing ELISA results with Mono-DNP linker (blue) versus PEG-Dual-DNP linker (red). As with the dual histadine linkers, a clear difference could be seen between single and dual DNP linker. There is nearly a 30% increase in the signal intensity from single to dual DNP molecule.

The subject of experiment [8] is anti-histamine antibody labelled with HRP. The experiment in a line: 5 min histamine ELISA with BSA-PEG-mono-Histidine conjugate coated plates. The class given is binding. The conditions noted are these: 5 min incubation, FIG. 23. As for the experimental part:
The thiol-PEG-mono Histidine linker was attached to BSA as follows. A 1 mL aliquot of maleimide conjugation buffer obtained from Thermo scientific was added to 10 mg of purified thiol-PEG-mono Histidine linker. Subsequently, the 1 mL solution containing the thiol-PEG-mono Histidine was added to 5 mg of commercially available BSA-maleimide substrate and allowed to react at room temperature for 4 h to provide the histidine-PEG-BSA conjugate. The histidine-PEG-BSA conjugate was purified using a 10K spin column. The histidine-PEG-BSA conjugate obtained was then used to modify the ELISA plate wells and assay was performed using a 5 min incubation time. […] The steps include coating the plates with BSA-PEG-Histidine conjugate 222, blocking with BSA 224, and incubation with HRP labeled anti-histamine antibody and free histamine 226. FIG. 23 presents the results obtained and compared to BSA-histamine (commercial, FIG. 5). […] The used and anti-histamine antibody labelled with HRP in a 5 min incubation time assay.

Regarding “biotin-EG6-histamine [PEG-mono-histamine]”, the “detection of free histamine” value with anti-histamine antibody [1] (concentration range studied, streptavidin coated plates, FIG. 15) is listed as “could not be detected”. In experiment [2], the “binding affinity of anti-histamine antibody” value (from here on “binding affinity”) is recorded as “high binding affinity”.
As a reminder, the Kd is the concentration at which binding is half-saturated. On to `NC(=O)C(CCCCNC(=O)C(CCCCNC(=O)C(N)Cc1c[nH]cn1)NC(=O)C(N)Cc1c[nH]cn1)NC(=O)CCOCCOCCOCCOCCNC(=O)CCCCC1SC[C@H]2NC(=O)N[C@@H]12` (stereo partly drawn) [PEG-dual Histidine, Biotin-PEG-Dual-Histidine], for which, in the experiment on anti-histamine antibody [1] (5 min incubation of anti-histamine antibody, FIG. 18A), the “starting signal compared to PEG-mono-histidine” value is “increased starting signal”. Besides, the “antibody binding specificity and sensitivity compared to the single histidine conjugate” value in the experiment with anti-histamine antibody [1] (FIG. 11) is “significant improvement”. Moreover, the “starting signal compared to PEG-mono histidine” value in experiment [3] is reported as “higher starting signal”. In addition, the “dynamic range compared to PEG-mono histidine” value in experiment [3] (FIG. 21) was “broader dynamic range”. Besides, the Kd in experiment [3] (FIG. 21) is 280 nM; at anti-histamine antibody [4] (Hill equation fit without the 0 nM histamine data point, human plasma) it was 6.76 nM. In the experiment on anti-histamine antibody [4] (spiked human plasma, FIG. 24), the “histamine concentration generating a statistically significant current change” value worked out at 3.75 nM. Besides, the “histamine detection in spiked human plasma” value in the experiment with anti-histamine antibody [5] (BSA-glutaraldehyde surface chemistry, under 10-minute assay) is “clear detection of histamine”; with anti-histamine antibody [5] (ELISA plate prepared by conventional means), “full blocking”.
Turning to `NC(=O)C(CCCCNC(=O)C(CCC(=O)O)CC(=O)C(N)Cc1cnc[nH]1)NC(=O)CCOCCOCCOCCOCCNC(=O)CCCCC1SC[C@H]2NC(=O)N[C@@H]12` (stereo partly drawn) [PEG-glutamate-histidine, Biotin-PEG-Glutamate-Histadine], in experiment [2], the “binding affinity” value is recorded as “nearly no binding”.
For the compound `NC(=O)C(CCCCNC(=O)C(Cc1ccccc1)NC(=O)C(N)Cc1cnc[nH]1)NC(=O)CCOCCOCCOCCOCCNC(=O)CCCCC1SC[C@@H]2NC(=O)N[C@H]12` (stereo partly drawn) [PEG-phenyl-histidine, Biotin-PEG-Phenyl-Histadine], the “sensitivity of the assay compared to PEG-mono-histidine” value in experiment [3] (5-minute histamine assay, FIG. 27) is listed as “no significant difference”. Moreover, the “starting signal compared to PEG-mono histidine” value in experiment [3] is given as “lower starting signal”. In addition, in experiment [2], the “binding affinity” value is “decreased significantly”.
As to `NC(Cc1c[nH]cn1)C(=O)NCCOCCOCCOCCOCCOCCOCCNC(=O)CCCCC1SC[C@H]2NC(=O)N[C@@H]12` (stereo partly drawn) [PEG-mono Histidine, Biotin-PEG-Mono-Histidine], the “signal enhancement and sensitivity versus immobilized BSA-histamine” value in the experiment with anti-histamine antibody [1] (FIG. 10) was “significantly improved”. Further, the “lowest concentration tested generating a statistically significant difference from the background” value in the experiment with anti-histamine antibody [6] was determined as 2.7 nM. In addition, in experiment [3] (FIG. 21), the dissociation constant (Kd) came to 449 nM.
`NC(=O)C(CCCCNC(=O)C(CCCCNc1cc([N+](=O)[O-])ccc1[N+](=O)[O-])Nc1cc([N+](=O)[O-])ccc1[N+](=O)[O-])NC(=O)CCOCCOCCOCCOCCNC(=O)CCCCC1SC[C@H]2NC(=O)N[C@@H]12` (stereo partly drawn) [dual DNP, Biotin-PEG-Dual-DNP]: the “increase in the signal intensity from single to dual DNP molecule” value in experiment [7] (45 min co-incubation) is given as about 30%. Also, the “dynamic range compared to single DNP linker” value in experiment [7] was “broader dynamic range”.
Consider “PEG-mono Histidine modified BSA: thiol-PEG-mono Histidine linker (Structure 5) attached to commercially available BSA-maleimide”, for which the “sensitivity towards free histamine compared to BSA-histamine (commercial)” value in experiment [8] was “increased sensitivity”.
